{
  "source": "patent US10954228B2",
  "about": "(NATIONAL INSTITUTES OF HEALTH, UNITED STATES DEPARTMENT OF …, priority 2016, dated 2021)",
  "data": [
    {"target": "Human LDHA (Homo sapiens (Human), UniProt P00338)", "assay": "human LDHA primary biochemical assay", "conditions": "biochemical LDHA inhibitory activity, assay of Example 1; activity level classes defined in nM", "text": "This example describes a human LDHA primary biochemical assay employed in the characterization of a compound of formula (I) in an embodiment of the invention.\nTest compounds were placed in a Greiner Bio-One (Monroe, N.C.) 1536-well black solid bottom assay plate. 200 millimolar (mM) Tris HCl, pH 7.4, 100 micromolar (μM) EDTA and 0.01% TWEEN-20™, final concentration, was used as the assay buffer. The LDHA reagent was 2 nanomolar (nM) Human LDHA (Meridian Life Science, Inc., Memphis, Tenn.), final concentration, in assay buffer. The substrate reagent was 0.06 mM NADH and 0.2 mM sodium pyruvate, final concentration, in assay buffer. The resazurin/diaphorase coupling reagent was 0.037 mM resazurin and 0.133 milligrams per milliliter (mg/mL) diaphorase, final concentration, in assay buffer. The inhibition of LDHA activity was measured by fluorescence emission.", "units": {"IC50": "nM"}, "values": [
      {"compound": "NS(=O)(=O)c1ccc(Cc2c(-c3cccc(-c4ccc(CC(F)(F)F)cc4)c3)nn(-c3nc(C(=O)O)cs3)c2CC2CC2)cc1F", "note": "[Compound 187, 2-(5-(cyclopropylmethyl)-4-(3-fluoro-4-sulfamoylbenzyl)-3-(4′-(2,2,2-trifluoroethyl)-[1,1′-biphenyl]-3-yl)-1H-pyrazol-1-yl)thiazole-4-carboxylic acid]", "IC50": "100 to 1000"},
      {"compound": "NS(=O)(=O)c1ccc(Cc2c(-c3cccc(-c4nc5ccccc5[nH]4)c3)nn(-c3nc(C(=O)O)cs3)c2CC2CC2)cc1F", "note": "[Compound 189, 2-(3-(3-(1H-benzo[d]imidazol-2-yl)phenyl)-5-(cyclopropylmethyl)-4-(3-fluoro-4-sulfamoylbenzyl)-1H-pyrazol-1-yl)thiazole-4-carboxylic acid]", "IC50": "< 100"},
      {"compound": "COc1ccc(-c2cc(-c3nn(-c4nc(C(=O)O)cs4)c(CC4CC4)c3Cc3ccc(S(N)(=O)=O)c(F)c3)ccc2F)cc1Cl", "note": "[Compound 191, 2-(3-(3′-chloro-6-fluoro-4′-methoxy-[1,1′-biphenyl]-3-yl)-5-(cyclopropylmethyl)-4-(3-fluoro-4-sulfamoylbenzyl)-1H-pyrazol-1-yl)thiazole-4-carboxylic acid]", "IC50": "< 100"},
      {"compound": "CC(C)(C)c1cccc(-c2cc(-c3nn(-c4nc(C(=O)O)cs4)c(CC4CC4)c3Cc3ccc(S(N)(=O)=O)c(F)c3)ccc2F)c1", "note": "[Compound 192, 2-(3-(3′-(tert-butyl)-6-fluoro-[1,1′-biphenyl]-3-yl)-5-(cyclopropylmethyl)-4-(3-fluoro-4-sulfamoylbenzyl)-1H-pyrazol-1-yl)thiazole-4-carboxylic acid]", "IC50": "100 to 1000"},
      {"compound": "CC(C)(C)c1ccc(-c2cc(-c3nn(-c4nc(C(=O)O)cs4)c(CC4CC4)c3Cc3ccc(S(N)(=O)=O)c(F)c3)ccc2F)cc1", "note": "[Compound 193, 2-(3-(4′-(tert-butyl)-6-fluoro-[1,1′-biphenyl]-3-yl)-5-(cyclopropylmethyl)-4-(3-fluoro-4-sulfamoylbenzyl)-1H-pyrazol-1-yl)thiazole-4-carboxylic acid]", "IC50": "100 to 1000"},
      {"compound": "CN(C)c1cccc(-c2cc(-c3nn(-c4nc(C(=O)O)cs4)c(CC4CC4)c3Cc3ccc(S(N)(=O)=O)c(F)c3)ccc2F)c1", "note": "[Compound 194, 2-(5-(cyclopropylmethyl)-3-(3′-(dimethylamino)-6-fluoro-[1,1′-biphenyl]-3-yl)-4-(3-fluoro-4-sulfamoylbenzyl)-1H-pyrazol-1-yl)thiazole-4-carboxylic acid]", "IC50": "< 100"},
      {"compound": "Cc1cc(-c2cc(-c3nn(-c4nc(C(=O)O)cs4)c(CC4CC4)c3Cc3ccc(S(N)(=O)=O)c(F)c3)ccc2F)ccc1F", "note": "[Compound 195, 2-(5-(cyclopropylmethyl)-3-(4′,6-difluoro-3′-methyl-[1,1′-biphenyl]-3-yl)-4-(3-fluoro-4-sulfamoylbenzyl)-1H-pyrazol-1-yl)thiazole-4-carboxylic acid]", "IC50": "< 100"},
      {"compound": "Cc1ccc(-c2cccc(-c3nn(-c4nc(C(=O)O)cs4)c(CC4CC4)c3Cc3ccc(S(N)(=O)=O)c(F)c3)c2)cc1", "note": "[Compound 198, 2-(5-(cyclopropylmethyl)-4-(3-fluoro-4-sulfamoylbenzyl)-3-(4′-methyl-[1,1′-biphenyl]-3-yl)-1H-pyrazol-1-yl)thiazole-4-carboxylic acid]", "IC50": "< 100"},
      {"compound": "N#Cc1cccc(-c2cc(-c3nn(-c4nc(C(=O)O)cs4)c(CC4CC4)c3Cc3ccc(S(N)(=O)=O)c(F)c3)ccc2F)c1", "note": "[Compound 200, 2-(3-(3′-cyano-6-fluoro-[1,1′-biphenyl]-3-yl)-5-(cyclopropylmethyl)-4-(3-fluoro-4-sulfamoylbenzyl)-1H-pyrazol-1-yl)thiazole-4-carboxylic acid]", "IC50": "< 100"},
      {"compound": "N#Cc1ccc(-c2cc(-c3nn(-c4nc(C(=O)O)cs4)c(CC4CC4)c3Cc3ccc(S(N)(=O)=O)c(F)c3)ccc2F)cc1", "note": "[Compound 201, 2-(3-(4′-cyano-6-fluoro-[1,1′-biphenyl]-3-yl)-5-(cyclopropylmethyl)-4-(3-fluoro-4-sulfamoylbenzyl)-1H-pyrazol-1-yl)thiazole-4-carboxylic acid]", "IC50": "< 100"},
      {"compound": "NS(=O)(=O)c1ccc(Cc2c(-c3ccc(F)c(N4CCCC4=O)c3)nn(-c3nc(C(=O)O)cs3)c2CC2CC2)cc1F", "note": "[Compound 202, 2-(5-(cyclopropylmethyl)-3-(4-fluoro-3-(2-oxopyrrolidin-1-yl)phenyl)-4-(3-fluoro-4-sulfamoylbenzyl)-1H-pyrazol-1-yl)thiazole-4-carboxylic acid]", "IC50": "< 100"},
      {"compound": "Cc1ccc(-c2cccc(-c3nn(-c4nc(C(=O)O)cs4)c(CC4CC4)c3Cc3ccc(S(N)(=O)=O)c(F)c3)c2)nc1", "note": "[Compound 203, 2-(5-(cyclopropylmethyl)-4-(3-fluoro-4-sulfamoylbenzyl)-3-(3-(5-methylpyridin-2-yl)phenyl)-1H-pyrazol-1-yl)thiazole-4-carboxylic acid]", "IC50": "< 100"},
      {"compound": "Cc1ccc(-c2cccc(-c3nn(-c4nc(C(=O)O)cs4)c(CC4CC4)c3Cc3ccc(S(N)(=O)=O)c(F)c3)c2)cn1", "note": "[Compound 204, 2-(5-(cyclopropylmethyl)-4-(3-fluoro-4-sulfamoylbenzyl)-3-(3-(6-methylpyridin-3-yl)phenyl)-1H-pyrazol-1-yl)thiazole-4-carboxylic acid]", "IC50": "< 100"},
      {"compound": "NS(=O)(=O)c1ccc(Cc2c(-c3cccc(-c4ccc(C(F)(F)C(F)(F)F)cc4)c3)nn(-c3nc(C(=O)O)cs3)c2CCC2CC2)cc1F", "note": "[Compound 205, 2-(5-(2-cyclopropylethyl)-4-(3-fluoro-4-sulfamoylbenzyl)-3-(4′-(perfluoroethyl)-[1,1′-biphenyl]-3-yl)-1H-pyrazol-1-yl)thiazole-4-carboxylic acid]", "IC50": "100 to 1000"},
      {"compound": "CC(C)c1ccc(-c2cccc(-c3nn(-c4nc(C(=O)O)cs4)c(CCC4CC4)c3Cc3ccc(S(N)(=O)=O)c(F)c3)c2)cc1", "note": "[Compound 206, 2-(5-(2-cyclopropylethyl)-4-(3-fluoro-4-sulfamoylbenzyl)-3-(4′-isopropyl-[1,1′-biphenyl]-3-yl)-1H-pyrazol-1-yl)thiazole-4-carboxylic acid]", "IC50": "100 to 1000"},
      {"compound": "CC(C)Cc1ccc(-c2cccc(-c3nn(-c4nc(C(=O)O)cs4)c(CCC4CC4)c3Cc3ccc(S(N)(=O)=O)c(F)c3)c2)cc1", "note": "[Compound 207, 2-(5-(2-cyclopropylethyl)-4-(3-fluoro-4-sulfamoylbenzyl)-3-(4′-isobutyl-[1,1′-biphenyl]-3-yl)-1H-pyrazol-1-yl)thiazole-4-carboxylic acid]", "IC50": "100 to 1000"},
      {"compound": "Cc1ccc(-c2ccc(-c3cccc(-c4nn(-c5nc(C(=O)O)cs5)c(CC5CC5)c4Cc4ccc(S(N)(=O)=O)c(F)c4)c3)cc2)s1", "note": "[Compound 208, 2-(5-(cyclopropylmethyl)-4-(3-fluoro-4-sulfamoylbenzyl)-3-(4′-(5-methylthiophen-2-yl)-[1,1′-biphenyl]-3-yl)-1H-pyrazol-1-yl)thiazole-4-carboxylic acid]", "IC50": "100 to 1000"},
      {"compound": "Cc1ccc(-c2ccc(-c3cc(-c4nn(-c5nc(C(=O)O)cs5)c(CC5CC5)c4Cc4ccc(S(N)(=O)=O)c(F)c4)ccc3F)cc2)s1", "note": "[Compound 209, 2-(5-(cyclopropylmethyl)-3-(6-fluoro-4′-(5-methylthiophen-2-yl)-[1,1′-biphenyl]-3-yl)-4-(3-fluoro-4-sulfamoylbenzyl)-1H-pyrazol-1-yl)thiazole-4-carboxylic acid]", "IC50": "100 to 1000"},
      {"compound": "CC(C)c1ccc(-c2cncc(-c3nn(-c4nc(C(=O)O)cs4)c(CC4CC4)c3Cc3ccc(S(N)(=O)=O)c(F)c3)c2)cc1", "note": "[Compound 210, 2-[5-(cyclopropylmethyl)-4-[(3-fluoro-4-sulfamoylphenyl)methyl]-3-[5-(4-isopropylphenyl)pyridin-3-yl]pyrazol-1-yl]-1,3-thiazole-4-carboxylic acid]", "IC50": "< 100"},
      {"compound": "CC(C)c1ccc(-c2cccc(-c3nn(-c4nc(C(=O)O)cs4)c(CC4CC4)c3Cc3ccc(S(N)(=O)=O)c(F)c3)n2)cc1", "note": "[Compound 211, 2-[5-(cyclopropylmethyl)-4-[(3-fluoro-4-sulfamoylphenyl)methyl]-3-[6-(4-isopropylphenyl)pyridin-2-yl]pyrazol-1-yl]-1,3-thiazole-4-carboxylic acid]", "IC50": "100 to 1000"},
      {"compound": "NS(=O)(=O)c1ccc(Cc2c(-c3ccc(F)c(-c4ccc(C5CC5)c(F)c4)c3)nn(-c3nc(C(=O)O)cs3)c2CC2CC2)cc1F", "note": "[Compound 212, 2-{3-[3-(4-cyclopropyl-3-fluorophenyl)-4-fluorophenyl]-5-(cyclopropylmethyl)-4-[(3-fluoro-4-sulfamoylphenyl)methyl]pyrazol-1-yl}-1,3-thiazole-4-carboxylic acid]", "IC50": "100 to 1000"},
      {"compound": "Cc1cc(-c2cc(-c3nn(-c4nc(C(=O)O)cs4)c(CC4CC4)c3Cc3ccc(S(N)(=O)=O)c(F)c3)ccc2F)ccc1C(C)C", "note": "[Compound 213, 2-[5-(cyclopropylmethyl)-3-[4-fluoro-3-(4-isopropyl-3-methylphenyl)phenyl]-4-[(3-fluoro-4-sulfamoylphenyl)methyl]pyrazol-1-yl]-1,3-thiazole-4-carboxylic acid]", "IC50": "< 100"},
      {"compound": "Cc1ncc(-c2cccc(-c3nn(-c4nc(C(=O)O)cs4)c(CC4CC4)c3Cc3ccc(S(N)(=O)=O)c(F)c3)c2)cn1", "note": "[Compound 214, 2-[5-(cyclopropylmethyl)-4-[(3-fluoro-4-sulfamoylphenyl)methyl]-3-[3-(2-methylpyrimidin-5-yl)phenyl]pyrazol-1-yl]-1,3-thiazole-4-carboxylic acid]", "IC50": "< 100"},
      {"compound": "CC(C)c1cnc(-c2cccc(-c3nn(-c4nc(C(=O)O)cs4)c(CC4CC4)c3Cc3ccc(S(N)(=O)=O)c(F)c3)c2)s1", "note": "[Compound 215, 2-[5-(cyclopropylmethyl)-4-[(3-fluoro-4-sulfamoylphenyl)methyl]-3-[3-(5-isopropyl-1,3-thiazol-2-yl)phenyl]pyrazol-1-yl]-1,3-thiazole-4-carboxylic acid]", "IC50": "< 100"}
    ]}
  ]
}
